For one assay, the target named is DhaA.H272F (Rhodococcus rhodochrous, UniProt P0A3G2, H272F). As to the kind of experiment: Binding of labeled chloroalkane substrates to DhaA.H272F. The text has this: (§1) Carboxytetramethylrhodamine-C10H21NO2—Cl, carboxyfluorescein-C10H21NO2—Cl, and 5-carboxy-X-rhodamine-C10H21NO2—Cl bound to DhaA.H272F but not to DhaA.WT. Biotin-C10H21NO2—Cl bound to DhaA.H272F but not to DhaA.WT.

Another assay has as its target DhaA.WT (Rhodococcus rhodochrous, UniProt P0A3G2). As to the kind of experiment: Binding of labeled chloroalkane substrates to wild type DhaA.
Text: as §1

The next assay concerns the target streptavidin (Streptomyces avidinii, UniProt P22629). The note with it: surface plasmon resonance; cited from earlier work. In general terms: Surface plasmon resonance follows binding to a sensor surface in real time, without labels.
Assay [1] concerns the target cyclic AMP dependent protein kinase catalytic subunit (Homo sapiens, UniProt P17612). The following applies: cited from earlier work.
Assay [2] addresses catalytic subunit of protein kinase A (Homo sapiens, UniProt P17612). The following applies: cited from earlier work.

Consider 5-carboxy-X-rhodamine-C10H21NO2—Cl, for which the “binding to DhaA.H272F” value at DhaA.H272F is given as “bound”. In addition, at DhaA.WT, the “binding to DhaA.WT” value is on record as “not”.

For `O=C(CCCC[C@@H]1SC[C@@H]2NC(=O)N[C@@H]21)NCCOCCOCCCCCCCl` [Biotin-C10H21NO2—Cl], the “binding to DhaA.H272F” value on DhaA.H272F is recorded as “bound”. In addition, the “binding to DhaA.WT” value at DhaA.WT was “not”.

Regarding `O=C(O)CCCC[C@@H]1SC[C@@H]2NC(=O)N[C@@H]21` [biotin], the “on-rate for biotin-streptavidin interaction” value at streptavidin is 5e+06 M⁻¹ s⁻¹.

For the molecule `O=C(NCCOCCOCCCCCCCl)c1ccc(-c2c3ccc(=O)cc-3oc3cc(O)ccc23)c(C(=O)O)c1` [carboxyfluorescein-C10H21NO2—Cl], the “binding to DhaA.H272F” value on DhaA.H272F was “bound”. For the same molecule, the “binding to DhaA.WT” value at DhaA.WT is “not”.

For “Carboxytetramethylrhodamine-C10H21NO2—Cl”, the “binding to DhaA.H272F” value on DhaA.H272F is recorded as “bound”. The “binding to DhaA.WT” value on DhaA.WT is recorded as “not”.

For the molecule LRRASLG, the “reduction of activity on addition of kinase catalytic subunit” value in assay [1] is on record as 30%.

Turning to “RRFS: Photinus pyralis luciferase with valine 217 mutated to arginine generating site RRFS (Sala-Newby et al.)”, the “decrease of activity when phosphorylated” value in assay [2] was “up to 80%”.

Values taken from patent US20090253131A1, “HYBRID FUSION REPORTER AND USES THEREOF” (Promega Corporation, priority 2007, published 2009).
